BindingDB's records for doi:10.1016/j.bmcl.2010.07.026 (Daiichi Sankyo, 2010)
pIC50: −log10 of the molar value.

Each compound was assayed against 3-phosphoinositide-dependent protein kinase 1 (Homo sapiens) (UniProt O15530) (assay: Inhibition of recombinant PDK1 after 15 mins).

SMILES	pIC50
O=C(NCCN1CCCC1)c1ccc(-c2cnc3ccc(NCc4ccc(Cl)c(Cl)c4)nn23)cc1 [4-(6-(3,4-dichlorobenzylamino)imidazo[1,2-b]pyridazin-3-yl)-N-(2-(pyrrolidin-1-yl)ethyl)benzamide]	< 4.00
CN(C)CCNC(=O)c1ccc(-c2cnc3ccc(NCC4CC4)nn23)cc1 [4-(6-(cyclopropylmethylamino)imidazo[1,2-b]pyridazin-3-yl)-N-(2-(dimethylamino)ethyl)benzamide]	< 4.00
O=C(NC[C@@H]1CCCN1)c1ccc(-c2cnc3ccc(NCc4ccc(Cl)c(Cl)c4)nn23)cc1 [(S)-4-(6-(3,4-dichlorobenzylamino)imidazo[1,2-b]pyridazin-3-yl)-N-(pyrrolidin-2-ylmethyl)benzamide]	< 4.00
O=C(NC[C@@H]1CCCN1)c1ccc(-c2cnc3ccc(NCc4cccc(Cl)c4)nn23)cc1 [(S)-4-(6-(3-chlorobenzylamino)imidazo[1,2-b]pyridazin-3-yl)-N-(pyrrolidin-2-ylmethyl)benzamide]	< 4.00
O=C(NC[C@@H]1CCCN1)c1ccc(-c2cnc3ccc(NCC4CC4)nn23)cc1 [(S)-4-(6-(cyclopropylmethylamino)imidazo[1,2-b]pyridazin-3-yl)-N-(pyrrolidin-2-ylmethyl)benzamide]	< 4.00
